The structures appear in SMILES notation.

The values below come from US20180325869A1, “TARGETING OF THE FORMYL-PEPTIDE RECEPTOR 2/LIPOXIN A4 RECEPTOR (FPR2/ALX) FOR TREATMENT OF HEART DISEASE” (BRISTOL-MYERS SQUIBB COMPANY, priority 2015, published 2018).

Data set [1] has as its system mice. In words: Permanent coronary artery occlusion myocardial infarction model. It counts as in vivo. On the procedure:
Animal models. Permanent coronary artery occlusion was carried out in mice using a ligature placed around the left anterior descending artery to induce myocardial infarction. […] Mice subjected to thoracotomy but not infarcted were included as surgical “sham” controls. Mice were evaluated 28 days following myocardial infarction to assess structure/function relationships. Hearts were removed from mice to evaluate the passive mechanics of the myocardium. To do this, ex vivo pressure-volume relationships of the left ventricle were measured via inflation and deflation cycles of a balloon placed within the left ventricle of the excised heart. Two-dimensional strains of the myocardial scar were also measured to determine the compliance of infarcted tissue. Hearts were also processed histologically to measure left ventricular dimensions, infarct areas and infarct collagen composition.

The test system of data set [2] is human HL60 cell line. In words: HL-60 cell migration assay antagonist mode (SAA-induced chemotaxis). The class given is cell-based. Particulars: read-out: affinity for antagonism of chemotaxis induced by SAA. On the procedure: (§1) HL-60 cell culture and differentiation. The HL-60 cell line (ATCC, CCL-240, lot 60398411) was maintained in IMDM (Life Tech, cat 12440-053) medium supplemented with 20% fetal bovine serum, 50 U/ml penicillin, and 50 μg/ml streptomycin at 37° with 5% CO2. Cells were differentiated into the granulocyte lineage with DMSO; 2.5×10^5 cells/ml were incubated with 1.25% DMSO for 5 days.
Neutrophil and HL-60 cell migration assay antagonist mode. After 5 day differentiation, the cells were resuspended in phenol free RPMI (Invitrogen, cat 11835) with 0.2% fatty acid free BSA at a concentration of 3×10^7 cells/ml. The dHL-60 cells (10^5 in 100 μl) were pre-incubated for 15 minutes with varying concentrations of the […] at 37° with 5% CO2. Then 0.8uM of the recombinant serum amyloid A1 peptide (rSAA1, PeproTech, Cat#300-53) was added to the bottom chamber of each HTS transwell-96well plate (Coming#3387). Migration was induced by placing […] and the dHL60 cells mixture in the top chamber of the transwell plate. Cells were allowed to migrate for 120 min across the 5micron filters at 37° with 5% CO2. Following migration, neutrophils or dHL-60 cells remaining in the transwell lower chamber (migrated fraction) were quantitated using the cell-titer-glo luminescence cell viability assay (Promega, G7571).

In data set [3] the test system is mouse bio-gel elicited peritoneal macrophages. The data set is described as follows: Enhancement of phagocytosis in bio-gel elicited peritoneal macrophages. The class given is cell-based. On the procedure: Enhancement of phagocytosis. Macrophages were elicited to the peritoneum of five C57BL6 mice by peritoneal injection of 1 ml of 1% Biogel in PBS (−/−) 4 days prior to harvest. Peritoneal exudates are harvested, combined and then filtered to remove Biogel beads. First, through a 70 um cell strainer followed by successively filtering through two 40 um cell strainers. The exudate is diluted with 1× PBS (−/−) to 50 ml and centrifuged at 300× g for 10 minutes at 4° C. The cell pellet is gently resuspended in 20-30 ml 1× PBS(+/+) and cells are counted using the Nexelcom Cellometer counter. Cell concentration is adjusted to 1,250,000 cells/ml in 1× PBS (+/+). 100 ul (125 k) cells are placed into each well of a 96-well Costar 3904 plate. The plates are centrifuged at 150× g for 30 seconds to promote adherence. […] Fluorescence signal from non-ingested Zymosan particles is quenched with 150 ul ice-cold 1:15 diluted Trypan Blue solution for 2 minutes and then aspirated to remove. Lastly, the plate is read on a SpectraMAX Gemini EM fluorescence plate reader in 150 ul of 1:50 diluted Trypan Blue. Plate Reader Settings=Bottom Read: Excitation 493 nm: Emission 525 nm: Cutoff 515 nm: Automix Off: Calibrate On: PMT=Auto: Column Priority: Reads/Well=20.

In data set [4] the test system is human HL60 cell line. The data set is described as follows: HL-60 cell migration assay agonist mode. It counts as cell-based. The note with it: read-out: potency for stimulation of chemotaxis by itself. As to the method:
as §1
Neutrophil and HL-60 cell migration assay agonist mode. After 5 day differentiation, cells were resuspended in phenol free RPMI (Invitrogen, cat 11835) with 0.2% fatty acid free BSA at a concentration of 3×10^7 cells/ml. The dHL-60 cells (10^5 in 100 μl) were added to the upper chamber of each HTS transwell-96well plate (Corning#3387). Migration was induced by placing chemoattractant in the bottom chamber and the dHL60 cells in the top chamber of the transwell plate. Cells were allowed to migrate for 120 min across the 5 micron filters at 37° with 5% CO2. Following migration, neutrophils or dHL-60 cells remaining in the transwell lower chamber (migrated fraction) were quantitated using the cell-titer-glo luminescence cell viability assay (Promega, G7571).

The test system of data set [5] is human HL60 cell line. In words: Flipr calcium flux assay using dHL60 cell line. The note with it: HL-60; neutrophil like human HL60 cell line; read-out: potency for increase of cytosolic Ca2+ levels. It counts as cell-based. On the procedure: Flipr assay using dHL60 non-adherent cell line. HL60 cells were diluted to 1.5×10^5 cells/ml and were grown in culture medium containing 1.3% DMSO at 37C for 5 days. On day 6 cells were counted to make sure that cells viability was approx. 95%. The 1.2×10^7 cells were spin down and washed cells once with assay buffer. The supernatant was removed and cells were re-suspended in 12 ml buffer with fluo-4 AM loading dye and label cells at 37C for 30 min. Loading buffer: HBSS (invitrogen, cat 14075), 20 mM HEPES, 0.1% FAF-BSA, 15 ul of 0.025% pluronic F127 (Invitrogen, P3000 MP), 2.5 mM probenecid, 1.9 uM Fluo-4 AM (Invitrogen, F14201). After incubation cells were washed once with reaction buffer to remove the dye and were re-suspended at 1×10^6 cells/ml. Following wash, cells were plated in 100 ul/well in Poly-D-Lysine pre-coated 96 well assay plates. Assay plates were centrifuged at 1000 rpm for 10 min and then placed in the FLIPR to perform calcium flux assay.
On the technique in general: Calcium flux is commonly read through the fluorescence of an indicator in the cells.

For data set [6], the target named is T1, mFPR2/ALX (Mus musculus, UniProt O88536).
T1 construct: expressed in transfected cells; host or cells: CHO-A12
T1 sequence (O88536 1-351): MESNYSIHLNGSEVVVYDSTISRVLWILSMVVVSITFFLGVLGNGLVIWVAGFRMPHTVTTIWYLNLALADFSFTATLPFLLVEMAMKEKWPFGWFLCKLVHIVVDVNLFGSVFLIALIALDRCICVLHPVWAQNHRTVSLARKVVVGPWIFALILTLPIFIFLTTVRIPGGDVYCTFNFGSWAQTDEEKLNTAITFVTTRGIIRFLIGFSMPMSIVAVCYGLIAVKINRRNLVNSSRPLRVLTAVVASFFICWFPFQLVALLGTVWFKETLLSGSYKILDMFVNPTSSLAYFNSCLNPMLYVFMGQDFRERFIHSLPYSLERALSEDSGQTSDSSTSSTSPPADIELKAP
The data set is described as follows: cAMP assay in CHO-A12 cell line over-expressing mouse mFPR2. The class given is cell-based. The note with it: CHO-A12 cells over-expressing mFPR2; read-out: potency as activator of mFPR2/ALX. (In general: cAMP levels reflect the balance of adenylyl cyclase and phosphodiesterase activity.)

The target of data set [7] is T2, mFPR3 (Mus musculus, UniProt O08790).
T2 construct: expressed in transfected cells; host or cells: CHO-A12
T2 sequence (O08790 1-351): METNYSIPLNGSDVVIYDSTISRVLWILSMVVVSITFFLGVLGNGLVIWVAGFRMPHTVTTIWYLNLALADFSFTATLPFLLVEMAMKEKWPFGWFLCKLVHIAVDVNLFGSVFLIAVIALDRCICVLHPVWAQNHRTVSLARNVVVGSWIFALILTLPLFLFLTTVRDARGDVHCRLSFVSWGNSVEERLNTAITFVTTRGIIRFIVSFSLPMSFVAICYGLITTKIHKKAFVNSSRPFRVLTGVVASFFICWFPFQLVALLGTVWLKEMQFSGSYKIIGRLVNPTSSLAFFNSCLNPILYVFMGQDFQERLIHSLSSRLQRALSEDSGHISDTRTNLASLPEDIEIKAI
In words: cAMP assay in CHO-A12 cell line over-expressing mouse mFPR3. It counts as cell-based. The note with it: CHO-A12 cells over-expressing mFPR3; read-out: activity against mFPR3.

Data set [8] deals with T3, mFPR1 receptor (Mus musculus, UniProt P33766).
T3 sequence (P33766 1-364): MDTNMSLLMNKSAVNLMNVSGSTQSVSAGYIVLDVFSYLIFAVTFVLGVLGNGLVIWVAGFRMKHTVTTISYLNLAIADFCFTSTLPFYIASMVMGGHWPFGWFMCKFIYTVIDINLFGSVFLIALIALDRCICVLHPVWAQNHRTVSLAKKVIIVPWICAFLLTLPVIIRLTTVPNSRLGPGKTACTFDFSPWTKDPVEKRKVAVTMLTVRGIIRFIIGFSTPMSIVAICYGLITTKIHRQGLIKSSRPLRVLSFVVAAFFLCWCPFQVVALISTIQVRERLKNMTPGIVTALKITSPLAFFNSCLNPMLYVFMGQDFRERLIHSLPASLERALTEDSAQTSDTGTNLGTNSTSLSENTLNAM
In words: Functional assay with mFPR1 receptor. It counts as cell-based. The note with it: read-out: function affinity with mFPR1 receptor.

Data set [9] deals with mice. The data set is described as follows: Angiotensin II challenge myocardial fibrosis model. It counts as in vivo, mouse. The note with it: for decrease of left ventricular hydroxyproline content vs vehicle: p<0.05. As to the method:
To assess myocardial fibrosis, mice were challenged with angiotensin II to stimulate cardiac hypertrophy and left ventricular collagen deposition. Mice were administered angiotensin II using subcutaneously implanted osmotic mini-pumps (˜2 mg/kg/day) A separate group of mice were implanted with subcutaneous pumps containing saline (surgical “sham” group); these mice served as control for pump implantation surgery. […] Treatments lasted for 2-3 weeks, depending on the exact study design. At the end of treatment phase, hearts were removed from animals and evaluated for collagen levels/fibrosis using a standard colorimetric assay for myocardial hydroxyproline or by cross-sectional histology of the hearts.
Myocardial fibrosis was evaluated in the mouse with continuous angiotensin II challenge administered by subcutaneous osmotic mini-pump.

[10] abbreviates: mice, oral 1 and 10 mg/kg QD, stated for both models.

Consider `CC(C)c1c(NC(=O)Nc2ccc(Cl)cc2)c(=O)n(-c2ccccc2)n1C` [Compound 1, 1-(4-chlorophenyl)-3-(5-isopropyl-1-methyl-3-oxo-2-phenyl-2,3-dihydro-1H-pyrazol-4-yl)urea], for which the “reduction of infarct area (as % of left ventricle area) vs vehicle” value in data set [1] (1 mg/kg, histology, p<0.05) was 44%; in data set [1] (10 mg/kg, histology, p<0.05), 49%. The “reduction of left ventricular chamber area vs vehicle (histology)” value in data set [1] (1 mg/kg, p<0.05) was 28%; in data set [1] (10 mg/kg, p<0.05), 30%. Moreover, the “ex vivo left ventricle pressure-volume curves” value in [1] (28 days post MI, 1 and 10 mg/kg QD oral) was “left shifted in a dose-dependent manner”. Besides, in [1] (28 days post MI, ex vivo), the “pressure-volume slopes (myocardial stiffness)” value was “greater than vehicle and similar to normal sham control mice”. Further, in data set [1] (28 days post MI, ex vivo), the two-dimensional scar strains entry was “reduced circumferential and longitudinal strains relative to vehicle treatment”. The overall mortality result in data set [1] (high dose) is listed as “decrease in overall mortality”. Further, the “increased anterior left ventricular wall thickness at site of infarction vs vehicle” value in [1] (histology, p<0.05) was 45-65%. Moreover, the “tolerability throughout the in-life phase” value in data set [1] (setting [10]) is given as “well tolerated”. Further, the “untoward effects on the physiology of the mice” value in data set [1] (setting [10]) is reported as “no untoward effects”. In [2], the IC50 is 189 nM. For the same compound, the “enhancement of phagocytosis of fluorescently labeled zymosan vs untreated control cells” value in data set [3] (compound in picomolar range, depending on experimental conditions) was 250 to 60%. In [3] (macrophages from single mFPR2 and mFPR3 or double mFPR2/FPR3 knockout mice), the “enhancement of phagocytosis in knockout macrophages” value is recorded as “no such enhancement”. The EC50 in data set [4] was 78 nM; in data set [5] it was 50 nM; in data set [6], 20 nM; in [7] it was > 10000 nM; in [8], ~50 nM. Further, the “decrease of left ventricular hydroxyproline content vs vehicle” value was found to be 83% in [9] (1 mg/kg, pre-treatment 24 h before angiotensin II, 2 weeks) and 75% in data set [9] (10 mg/kg, pre-treatment 24 h before angiotensin II, 2 weeks). Further, the “interstitial collagen by histology of the left ventricle” value in [9] (pre-treatment 24 h before angiotensin II, 2 weeks) is recorded as “Comparable reductions”. The “hydroxyproline content and interstitial collagen levels by histology” value in [9] (treatment given at the time of angiotensin II challenge) was “comparable reductions”. In addition, the “reduction of interstitial fibrosis in the left ventricle vs vehicle” value in data set [9] (treatment started after 3 days of angiotensin II, 2.5 weeks, histology, p<0.001) was ~74%.
